Reference: patent EP4813381A1, “PHARMACEUTICAL USE OF GUAIANE SESQUITERPENE DERIVATIVE” (Nanjing University Of Chinese Medicine, priority 2023, dated 2025)

Legend:
[1] = Conversion rate of salt-form prodrugs to parent compound in HEPES buffer solution; format: physicochemical
Description: Adjust the pH to 7.4 using 0.5 M NaOH, then dilute to a final volume 100 mL with distilled water.
(§1) Sample Analysis: Dissolve 0.6 mg of the compound in 250 µl of deionized water separately. Add 250 µl of mouse serum or HEPES 7.4 solution to the sample, incubate at a constant temperature of 37 °C, and collect samples at different time points. Pipette 20 µl of the sample to an EP tube, add 60 µl of methanol, vortex to mix thoroughly, and centrifuge at 12,000 rpm at 4 °C for 10 min. At 1 h, 2 h, 4 h, 8 h, and 12 h respectively, collect the supernatant for HPLC analysis. Inject 10 µL of sample and record the corresponding peak areas.

[2] = Conversion rate of salt-form prodrugs to parent compound in mouse plasma; format: in vitro ADME; details: 37 °C
Description: Pharmaceutically acceptable salts of guaiane-type sesquiterpene lactone derivatives were selected and evaluated for their conversion rates to Compound 1 and Compound 83 in plasma and HEPES buffer, with results shown in Tables 2-1, 2-2, 3-1, and 3-2.
Plasma Preparation: Collect mouse plasma into an EP tube pre-loaded with sodium heparin, centrifuge at 8000 rpm for 10 minutes at 4°C, and then collect the supernatant.
as §1, with “areas. Chromatographic conditions: Hanbang C18 column (4.6 × 250 mm, 5 µm); mobile phase: acetonitrile: […] ammonium formate solution = 60:40; flow rate 1.0 mL/min; detection wavelength 210 nm; column temperature 30 °C. [drawing 171] Table 2-1. Conversion Rate of Compounds 20-42 to Compound 1 at Different Time Points in HEPES Buffer Solution” for “areas.”

[3] = conversion to Compound 1, HEPES buffer pH 7.4, 37 °C, 1 h
[4] = conversion to Compound 1, HEPES buffer pH 7.4, 37 °C, 2 h
[5] = conversion to Compound 1, HEPES buffer pH 7.4, 37 °C, 4 h
[6] = conversion to Compound 1, HEPES buffer pH 7.4, 37 °C, 8 h
[7] = conversion to Compound 1, HEPES buffer pH 7.4, 37 °C, 12 h
[8] = conversion to Compound 1, mouse plasma, 1 h
[9] = conversion to Compound 1, mouse plasma, 2 h
[10] = conversion to Compound 1, mouse plasma, 4 h
[11] = conversion to Compound 1, mouse plasma, 8 h
[12] = conversion to Compound 1, mouse plasma, 12 h

| Structure (SMILES) | Release rate [1, 3] [%] | Release rate [1, 4] [%] | Release rate [1, 5] [%] | Release rate [1, 6] [%] | Release rate [1, 7] [%] | Release rate [2, 8] [%] | Release rate [2, 9] [%] | Release rate [2, 10] [%] | Release rate [2, 11] [%] | Release rate [2, 12] [%] | Release rate ([1]; conversion to Compound 83, HEPES buffer pH 7.4, 37 °C, 1 h) [%] | Release rate ([1]; conversion to Compound 83, HEPES buffer pH 7.4, 37 °C, 2 h) [%] | Release rate ([1]; conversion to Compound 83, HEPES buffer pH 7.4, 37 °C, 4 h) [%] | Release rate ([1]; conversion to Compound 83, HEPES buffer pH 7.4, 37 °C, 8 h) [%] | Release rate ([1]; conversion to Compound 83, HEPES buffer pH 7.4, 37 °C, 12 h) [%] | Release rate ([2]; conversion to Compound 83, mouse plasma, 1 h) [%] | Release rate ([2]; conversion to Compound 83, mouse plasma, 2 h) [%] | Release rate ([2]; conversion to Compound 83, mouse plasma, 4 h) [%] | Release rate ([2]; conversion to Compound 83, mouse plasma, 8 h) [%] | Release rate ([2]; conversion to Compound 83, mouse plasma, 12 h) [%] |
| --- | --- | --- | --- | --- | --- | --- | --- | --- | --- | --- | --- | --- | --- | --- | --- | --- | --- | --- | --- | --- |
| C[C@@]12CC[C@@H]3[C@H](OC(=O)[C@H]3CN3CC4CCCC4C3)[C@@H]3[C@]1(CC[C@@]3(C)O)C2 (stereo partly drawn) [compound 32] | 6.9 | 15.4 | 26.2 | 42.2 | 51.2 | 6.3 | 14.4 | 25.2 | 43.2 | 51.4 | – | – | – | – | – | – | – | – | – | – |
| C[C@@]12CC[C@@H]3[C@H](OC(=O)[C@H]3CN3CCC(N4CCCCC4)CC3)[C@@H]3[C@]1(CC[C@@]3(C)O)C2 [compound 35] | 6.8 | 14.6 | 26.4 | 43.8 | 52.5 | 6.8 | 13.6 | 26.4 | 44.8 | 52.5 | – | – | – | – | – | – | – | – | – | – |
| CCCN(CCC)C[C@@H]1C(=O)O[C@H]2[C@H]1CC[C@@]1(C)C[C@]13CC[C@@](C)(O)[C@H]23 [compound 29] | 6.8 | 14.2 | 24.6 | 40.2 | 49.8 | 6.8 | 14.2 | 24.6 | 40.2 | 49.0 | – | – | – | – | – | – | – | – | – | – |
| CC(C)N(C[C@@H]1C(=O)O[C@H]2[C@H]1CC[C@@]1(C)C[C@]13CC[C@@](C)(O)[C@H]23)C(C)C [compound 31] | 6.7 | 14.0 | 23.0 | 41.2 | 49.5 | 6.5 | 13.9 | 24.4 | 40.2 | 48.5 | – | – | – | – | – | – | – | – | – | – |
| CC1=C2CC[C@@](C)(OC(=O)N3CCCCC3)[C@@H]2[C@H]2OC(=O)[C@@H](CN3CCCC3)[C@@H]2CC1 [compound 101] | – | – | – | – | – | – | – | – | – | – | 7.0 | 16.0 | 28.2 | 46.4 | 53.6 | 7.6 | 16.6 | 27.4 | 46.0 | 54.2 |
| C[C@@]12CC[C@@H]3[C@H](OC(=O)[C@H]3CN3CCC4(CCCC4)CC3)[C@@H]3[C@]1(CC[C@@]3(C)O)C2 [compound 34] | 7.0 | 16.2 | 27.6 | 43.6 | 54.4 | 7.8 | 17.2 | 28.6 | 47.6 | 58.8 | – | – | – | – | – | – | – | – | – | – |
| C[C@@]12CC[C@@H]3[C@H](OC(=O)[C@H]3CN3CCC(N4CCOCC4)CC3)[C@@H]3[C@]1(CC[C@@]3(C)O)C2 [compound 36] | 6.9 | 14.8 | 26.0 | 43.6 | 52.4 | 6.6 | 14.8 | 26.0 | 43.6 | 52.1 | – | – | – | – | – | – | – | – | – | – |
| CCOC(=O)[C@@H]1CCCN1C[C@@H]1C(=O)O[C@H]2[C@H]1CC[C@@]1(C)C[C@]13CC[C@@](C)(O)[C@H]23 [compound 23] | 6.2 | 14.3 | 26.8 | 41.1 | 52.8 | 7.2 | 14.3 | 26.8 | 45.1 | 52.8 | – | – | – | – | – | – | – | – | – | – |
| CN(C)C[C@@H]1C(=O)O[C@H]2[C@H]1CC[C@@]1(C)C[C@]13CC[C@@](C)(O)[C@H]23 [compound 39] | 6.6 | 15.0 | – | 42.7 | 54.3 | 6.6 | 14.0 | – | 43.6 | 52.8 | – | – | – | – | – | – | – | – | – | – |
| CN(C)C[C@@H]1C(=O)O[C@H]2[C@H]1CC[C@@]1(C)C[C@]13CC[C@@](C)(O)[C@H]23 [compound 42] | 7.0 | 15.0 | 25.2 | 42.8 | 52.3 | 6.3 | 14.2 | – | 41.0 | 47.2 | – | – | – | – | – | – | – | – | – | – |
| CCCCN(CCCC)C[C@@H]1C(=O)O[C@H]2[C@H]1CC[C@@]1(C)C[C@]13CC[C@@](C)(O)[C@H]23 [compound 30] | 6.6 | 14.6 | 23.8 | 40.8 | 49.8 | 6.6 | 13.6 | 23.8 | 40.8 | 48.8 | – | – | – | – | – | – | – | – | – | – |
| C[C@@]12CC[C@@H]3[C@H](OC(=O)[C@H]3CN3CCC3)[C@@H]3[C@]1(CC[C@@]3(C)O)C2 [compound 33] | 6.9 | 15.8 | 26.0 | 41.8 | 51.1 | 6.9 | 14.8 | 26.0 | 42.8 | 50.7 | – | – | – | – | – | – | – | – | – | – |
| C[C@@]12CC[C@@H]3[C@H](OC(=O)[C@H]3CN3CCCCC3)[C@@H]3[C@]1(CC[C@@]3(C)O)C2 [compound 24] | 6.8 | 15.1 | 26.7 | 42.8 | 54.0 | 7.7 | 17.1 | 27.7 | 47.8 | 57.9 | – | – | – | – | – | – | – | – | – | – |
| CN(C)C[C@@H]1C(=O)O[C@H]2[C@H]1CC[C@@]1(C)C[C@]13CC[C@@](C)(O)[C@H]23 [compound 41] | 7.0 | 16.2 | 27.3 | 43.4 | 53.2 | 7.8 | 17.2 | 28.0 | 46.1 | 54.8 | – | – | – | – | – | – | – | – | – | – |
| C[C@@]12CC[C@@H]3[C@H](OC(=O)[C@H]3CN3CCOCC3)[C@@H]3[C@]1(CC[C@@]3(C)O)C2 [compound 25] | 6.8 | 14.1 | 26.1 | 42.8 | 51.8 | 6.8 | 14.1 | 25.7 | 43.8 | 51.8 | – | – | – | – | – | – | – | – | – | – |
| CCN1CCN(C[C@@H]2C(=O)O[C@H]3[C@H]2CC[C@@]2(C)C[C@]24CC[C@@](C)(O)[C@H]34)CC1 [compound 27] | – | – | – | – | – | 7.9 | 17.4 | 28.4 | 48.2 | 59.1 | – | – | – | – | – | – | – | – | – | – |
| C[C@@]12CC[C@@H]3[C@H](OC(=O)[C@H]3CN3CCCC3)[C@@H]3[C@]1(CC[C@@]3(C)O)C2 [compound 22] | 6.4 | 14.8 | 26.6 | 41.3 | 53.7 | – | – | – | – | – | – | – | – | – | – | – | – | – | – | – |
| C[C@@]12CC[C@@H]3[C@H](OC(=O)[C@H]3CN3CCNCC3)[C@@H]3[C@]1(CC[C@@]3(C)O)C2 [compound 26] | 6.8 | 16.1 | 27.3 | 43.5 | 55.6 | – | – | – | – | – | – | – | – | – | – | – | – | – | – | – |
